Assay results: US20100173888A1 (Pfizer Inc, priority 2008, published 2010)
pIC50: −log10 of the molar value.

Biological target: human recombinant H-PGDS (Homo sapiens, UniProt O60760)
Test: Slightly modified fluorescence intensity h-PGDS TBA enzyme assay (1:40,000 enzyme, 40 second reaction, 1/2 log dilutions, top concentration typically 10 μM)
Type: biochemical
Settings: slightly modified assay: 1:40,000 human recombinant H-PGDS
Outline: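 Enzyme pre-incubated 10 min at room temperature with inhibitor in 100 mM Trizma pH 8.0, 100 μM MgCl2, 0.1 mg/ml rabbit IgG, 2.5 mM glutathione, 0.5% DMSO; reaction started with 5.0 μM PGH2 and stopped with FeCl2/citric acid. Remaining PGH2 quantified as MDA–TBA fluorescence (ex 530/em 560 nm); IC50 from 4-parameter fit, 11 concentrations in duplicate.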

human recombinant H-PGDS, sequence (O60760 whole entry): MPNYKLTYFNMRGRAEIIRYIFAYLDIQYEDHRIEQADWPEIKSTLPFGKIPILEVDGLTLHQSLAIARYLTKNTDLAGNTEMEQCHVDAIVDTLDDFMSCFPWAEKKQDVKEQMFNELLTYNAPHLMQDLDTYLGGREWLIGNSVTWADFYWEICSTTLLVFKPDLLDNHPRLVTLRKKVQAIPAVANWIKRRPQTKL

pIC50 | Compound
8.54 | CC(C)(O)[C@H]1CC[C@H](NC(=O)c2ccc(-c3cccc(F)c3)nc2)CC1 [Example 97, 6-(3-Fluorophenyl)-N-[trans-4-(1-hydroxy-1-methylethyl)cyclohexyl]nicotinamide]
7.67 | N[C@H]1CCN(C(=O)[C@H]2CC[C@H](NC(=O)c3ccc(-c4cccc(F)c4)nc3)CC2)C1 [Example 98, N-(trans-4-{[(3S)-3-Aminopyrrolidin-1-yl]carbonyl}cyclohexyl)-6-(3-fluorophenyl)nicotinamide]
7.95 | N[C@@H]1CCN(C(=O)[C@H]2CC[C@H](NC(=O)c3ccc(-c4cccc(F)c4)nc3)CC2)C1 [Example 99, N-(trans-4-{[(3R)-3-Aminopyrrolidin-1-yl]carbonyl}cyclohexyl)-6-(3-fluorophenyl)nicotinamide]
7.89 | NC1CN(C(=O)[C@H]2CC[C@H](NC(=O)c3ccc(-c4cccc(F)c4)nc3)CC2)C1 [Example 100, N-{trans-4-[(3-Aminoazetidin-1-yl)carbonyl]cyclohexyl}-6-(3-fluorophenyl)nicotinamide]
7.80 | C[C@H]1CN(C(=O)[C@H]2CC[C@H](NC(=O)c3ccc(-c4cccc(F)c4)nc3)CC2)CCN1 [Example 101, 6-(3-Fluorophenyl)-N-(trans-4-{[(3S)-3-methylpiperazin-1-yl]carbonyl}cyclohexyl)nicotinamide]
8.01 | C[C@@H]1CN(C(=O)[C@H]2CC[C@H](NC(=O)c3ccc(-c4cccc(F)c4)nc3)CC2)CCN1 [Example 102, 6-(3-Fluorophenyl)-N-(trans-4-{[(3R)-3-methylpiperazin-1-yl]carbonyl}cyclohexyl)nicotinamide]
8.84 | O=C(N[C@H]1CC[C@H](CO)CC1)c1ccc(-c2cccc(F)c2)nc1 [Example 103, 6-(3-Fluorophenyl)-N-[trans-4-(hydroxymethyl)cyclohexyl]nicotinamide]
7.83 | Cc1nccn1[C@H]1CC[C@H](NC(=O)c2ccc(-c3cccc(F)c3)nc2)CC1 [Example 105, 6-(3-Fluorophenyl)-N-[trans-4-(2-methyl-1H-imidazol-1-yl)cyclohexyl]nicotinamide]
7.85 | CC(C)c1nccn1[C@H]1CC[C@H](NC(=O)c2ccc(-c3cccc(F)c3)nc2)CC1 [Example 106, 6-(3-Fluorophenyl)-N-[trans-4-(2-isopropyl-1H-imidazol-1-yl)cyclohexyl]nicotinamide]
7.51 | O=C(N[C@H]1CC[C@H](C(=O)N2CCN(C3CC3)CC2)CC1)c1ccc(-c2cccc(F)c2)nc1 [Example 107, N-{trans-4-[(4-Cyclopropylpiperazin-1-yl)carbonyl]cyclohexyl}-6-(3-fluorophenyl)nicotinamide]
7.66 | C[C@@H]1CNCCN1C(=O)[C@H]1CC[C@H](NC(=O)c2ccc(-c3cccc(F)c3)nc2)CC1 [Example 108, 6-(3-Fluorophenyl)-N-(trans-4-{[(2R)-2-methylpiperazin-1-yl]carbonyl}cyclohexyl)nicotinamide]
7.78 | C[C@H]1CNCCN1C(=O)[C@H]1CC[C@H](NC(=O)c2ccc(-c3cccc(F)c3)nc2)CC1 [Example 109, 6-(3-Fluorophenyl)-N-(trans-4-{[(2S)-2-methylpiperazin-1-yl]carbonyl}cyclohexyl)nicotinamide]
8.23 | O=C(N[C@H]1CC[C@H](CN2CCOCC2)CC1)c1ccc(-c2cccc(F)c2)nc1 [Example 110, 6-(3-Fluorophenyl)-N-[trans-4-(morpholin-4-ylmethyl)cyclohexyl]nicotinamide]
7.64 | CN1CCN(C[C@H]2CC[C@H](NC(=O)c3ccc(-c4cccc(F)c4)nc3)CC2)CC1 [Example 111, 6-(3-Fluorophenyl)-N-{trans-4-[(4-methylpiperazin-1-yl)methyl]cyclohexyl}nicotinamide]
7.80 | CN(C)C[C@H]1CC[C@H](NC(=O)c2ccc(-c3cccc(F)c3)nc2)CC1 [Example 112, N-{trans-4-[(Dimethylamino)methyl]cyclohexyl}-6-(3-fluorophenyl)nicotinamide]
8.01 | Cc1nccn1C[C@H]1CC[C@H](NC(=O)c2ccc(-c3cccc(F)c3)nc2)CC1 [Example 113, 6-(3-Fluorophenyl)-N-{trans-4-[(2-methyl-1H-imidazol-1-yl)methyl]cyclohexyl}nicotinamide]
8.06 | C[C@]1(O)CC[C@H](NC(=O)c2ccc(-c3cccc(F)c3)nc2)CC1 [Example 115, 6-(3-Fluorophenyl)-N-(trans-4-hydroxy-4-methylcyclohexyl)nicotinamide]
6.86 | C[C@]1(C(=O)O)CC[C@@H](NC(=O)c2ccc(-c3cccc(F)c3)nc2)CC1 [Example 116, cis-4-({[6-(3-Fluorophenyl)pyridin-3-yl]carbonyl}amino)-1-methylcyclohexanecarboxylic acid]
8.14 | C[C@]1(C(=O)O)CC[C@H](NC(=O)c2ccc(-c3cccc(F)c3)nc2)CC1 [Example 117, trans-4-({[6-(3-Fluorophenyl)pyridin-3-yl]carbonyl}amino)-1-methylcyclohexanecarboxylic acid]
7.29 | CN1CCN(C(=O)C2(C)CCC(NC(=O)c3ccc(-c4cccc(F)c4)nc3)CC2)CC1 (stereo not drawn) [Example 118, 6-(3-Fluorophenyl)-N-{cis-4-methyl-4-[(4-methylpiperazin-1-yl)carbonyl]cyclohexyl}nicotinamide]
8.39 | CCn1cnc2c1CCC(NC(=O)c1ccc(-c3cccc(F)c3)nc1)C2 (stereo not drawn) [Example 126, N-(1-Ethyl-4,5,6,7-tetrahydro-1H-benzoimidazol-5-yl)-6-(3-fluoro-phenyl)-nicotinamide]
8.30 | O=C(NC1CCc2ncccc2C1)c1ccc(-c2cccc(F)c2)nc1 (stereo not drawn) [Example 127, 6-(3-Fluorophenyl)-N-(5,6,7,8-tetrahydroquinolin-6-yl)nicotinamide]
6.75 | O=C(NC1CCCc2cccnc21)c1ccc(-c2cccc(F)c2)nc1 (stereo not drawn) [Example 128, 6-(3-Fluorophenyl)-N-(5,6,7,8-tetrahydroquinolin-8-yl)nicotinamide]
7.83 | N-{cis-3-[(3-aminocyclohexyl)carbamoyl]cyclohexyl}-6-(3-fluorophenyl)nicotinamide N-{trans-3-[(3-aminocyclohexyl)carbamoyl]cyclohexyl}-6-(3-fluorophenyl)nicotinamide [Example 64D]
